According to patent US20090176791A1, “Diaryl Ureas for Treating Pulmonary Hypertension” (BAYER HEALTHCARE AG, priority 2005, published 2009):

Tested on: monocrotaline-treated rats with pulmonary hypertension
Conditions: MCT-induced pulmonary arterial hypertension, 10 mg/kg by gavage once daily from day 14 to day 28 after MCT
Procedure: The effects of the compounds and drug combinations according to the invention are tested in vitro on isolated rat pulmonary arteries and in vivo in monocrotaline-treated rats with pulmonary hypertension.
Male Sprague Dawley rats (250-300 g) are treated with monocrotaline 60 mg/kg subcutaneously (=day 0). On day 14 after monocrotaline injection treatment the compound/combination to be tested is administered. On day 28 hemodynamic parameters, i.e. right ventricular pressure, systemic blood pressure, heart rate, arterial and venous oxygen saturation are measured and compared with untreated control animals.

With `CNC(=O)c1cc(Oc2ccc(NC(=O)Nc3ccc(Cl)c(C(F)(F)F)c3)cc2)ccn1.Cc1ccc(S(=O)(=O)O)cc1` [p-toluenesulfonic acid salt of 4{4-[3-(4-chloro-3-trifluoromethylphenyl)-ureido]-phenoxy}-pyridine-2-carboxylic acid methyl amide] the “right ventricle/left ventricle+septum ratio (right ventricular hypertrophy)” value (day 28) was 0.26±0.01 and the “right ventricular systolic pressure” value (measured on day 28, mean±SEM) was 36.50±1.50 mmHg.
